Columns and labels:
Type in all cases: cell-based
thromboxane synthase = molecular target: T1, thromboxane synthase (Homo sapiens, UniProt P24557); assay: Inhibition of thromboxane synthase (human thrombocytes); conditions: for IC50: human thrombocytes, arachidonic acid 3.5 μM, read-out: IC50-Value, inhibition of thromboxane synthase (TXB2 formation); for inhibitory action on thromboxane synthase: in words
T1 construct: human thrombocytes were isolated from platelet-rich plasma; endogenous in cells; host or cells: human thrombocytes (platelets), intact
T1 sequence (P24557 1-533): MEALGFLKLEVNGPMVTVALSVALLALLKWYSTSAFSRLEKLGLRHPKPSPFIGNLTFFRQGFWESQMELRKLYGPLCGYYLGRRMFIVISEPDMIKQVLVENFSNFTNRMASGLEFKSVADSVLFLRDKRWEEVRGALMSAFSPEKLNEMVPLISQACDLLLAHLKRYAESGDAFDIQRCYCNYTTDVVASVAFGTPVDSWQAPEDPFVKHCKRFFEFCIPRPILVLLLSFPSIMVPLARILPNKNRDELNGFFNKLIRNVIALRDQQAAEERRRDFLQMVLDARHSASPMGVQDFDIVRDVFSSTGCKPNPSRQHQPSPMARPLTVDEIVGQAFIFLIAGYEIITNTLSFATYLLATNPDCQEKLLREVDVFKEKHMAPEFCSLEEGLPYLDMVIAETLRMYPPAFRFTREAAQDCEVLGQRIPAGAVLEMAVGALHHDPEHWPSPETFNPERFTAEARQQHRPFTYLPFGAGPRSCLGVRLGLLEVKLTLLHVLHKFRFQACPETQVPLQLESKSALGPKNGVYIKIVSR
Protocol: After addition of prostacyclin, human thrombocytes were isolated from platelet-rich plasma and suspended in Tyrode-Hepes buffer of pH 7.4 at 2×10^8 cells/ml. One ml aliquots of cells were incubated either with a compound according to the invention (0.1 to 100 μM) or a solvent (ethanol and/or dimethyl sulfoxide) at 37° C. for 3 minutes and thereafter with radioactively labelled arachidonic acid (3.5 μM) for 5 minutes. The reaction was stopped and the metabolites of arachidonic acid were extracted by adding methanol, chloroform and formic acid. After evaporation of the chloroform-containing layer to dryness under nitrogen, the residue obtained was resuspended in 50 μl chloroform and analyzed by thin layer chromatography. The distribution of the radioactivity of the different metabolites of arachidonic acid was measured using a TLC linear analyzer.

[1] = system: Leukotriene-Synthesis Induced by FMLP/Merthiolate of Human Polymorphonuclear Leukocytes; assay: Inhibition of leukotriene-synthesis induced by FMLP/merthiolate of human polymorphonuclear leukocytes (reversibility); conditions: Leukocyte, human granulocytes, preincubated 5 minutes, centrifuged, resuspended, read-out: IC50-value of the reversible inhibitory action
Protocol: (§1) Human granulocytes were isolated by dextran-sedimentation and a Percoll gradient method and suspended in HBSS (Hanks buffered salt solution) at1×10^7 cells/mi. The cells were incubated in presence of a compound according to the invention or a solvent (ethanol and/or dimethyl sulfoxide) at 37° C. for 2 minutes, then with merthiolate (sodium ethylmercurithiosalicylate; 40 μM) for 2 minutes, and thereafter with FMLP (formyl-methionyl-leucylphenylalanine; 10^-7 M) for 15 minutes. After solid phase extraction the metabolites of arachidonic acid 5-HETE, LTB4, 6-trans-LTB4 -isomers, 20-OH-LTB4 and 20-COOH-LTB4 were identified by RP-HPLC [M. Haurand and L. Flohe in Biochem. Pharmacol. 38, 2129-37 (1989)].
To examine the reversibility of the inhibitory action the cells were incubated with a compound according the invention or a solvent (ethanol and/or dimethyl sulfoxide) at 37° C. for 5 minutes, centrifuged at 300×g for 5 minutes and resuspended in 2 ml HBSS. Then the cells were incubated with merthiolate (40 μM) at 37° C. for 2 minutes and thereafter with FMLP (10^-7 M) for 15 minutes. The IC50 -value of the reversible inhibitory action was 2μmolar when the compound prepared according to Example 1 was used.

12-lipoxygenase = assay: Inhibition of 12-HETE- and 5S,12S-DiHETE-synthesis induced by FMLP/merthiolate of human polymorphonuclear leukocytes and thrombocytes; conditions: coincubated human granulocytes and thrombocytes
Protocol: as §1
Coincubations of human granulocytes and thrombocytes were carried out and investigated according to the inhibition of leukotriene-synthesis induced by FMLP/merthiolate. 12-HETE and 5S,12S-dihydroxy-HETE (5S,12S-DiHETE) were additionally included in the evaluation.

Row | SMILES | IC50 (thromboxane synthase) [nM] | inhibitory action on thromboxane synthase (thromboxane synthase) | IC50 [1] [nM] | inhibitory action on 12-lipoxygenase (12-lipoxygenase)
1 | NC(=O)N(O)Cc1ccc(Oc2ccc(-n3ccnc3)cc2)cc1 [Example 1, N-hydroxy-N-[4-[4-(1H-imidazol-1-yl)phenoxy]phenylmethyl]urea] | 2800 | same inhibitory potency as the hydrochloride of the imidazolylethoxybenzoic acid UK 37 248 | 2000 | did not exert an inhibitory action on 12-lipoxygenase
2 | CC(=O)N(O)Cc1ccc(Oc2ccc(-n3ccnc3)cc2)cc1 [Example 3, N-hydroxy-N-[4-[4-(1H-imidazol-1-yl)phenoxy]phenylmethyl]acetamide] | 2900 | same inhibitory potency as the hydrochloride of the imidazolylethoxybenzoic acid UK 37 248 | – | –

Source: patent US5356921A, “Imidazolylphenol compounds, pharmaceutical compositions containing them, and processes for preparing such compounds and compositions” (Gruenenthal GmbH, priority 1992, dated 1994)
